{"source": "patent US20240091169A1", "about": "“POL[…] FOR TREATING INFLAMMATORY DISEASES” (UNIVERSITY OF SOUTH CAROLINA, priority 2022, published 2024)", "key": {"[1]": {"system": "bone marrow derived macrophages (BMDMs)", "assay": "CCK-8 cell viability of BMDMs", "type": "cell-based, C57BL/6 mice", "conditions": "Mus musculus, BMDM, 24 hr, read-out: IC50, cell survival of BMDMs", "description": "Bone marrow-derived macrophages (BMDMs) were isolated from healthy 10-14-week-old C57BL/6 male mice. Briefly, mice were euthanized by isoflurane overdose. Femurs were cleared of muscle and debris. The epiphyses of the femurs were cut and placed knee-down and spun down in a 1.5 mL tube. Bone marrow was collected and resuspended in complete DMEM (cDMEM; 10% FBS, 1% penicillin/streptomycin) and passed through two 100 μm strainers. Cells were plated on an untreated 10 cm dish in cDMEM and allowed to incubate at 37° C. for 4 hr. Adherent/mature monocytes and dendritic cells were discarded, while floating/immature monocytes were collected. Cells were subjected to RBC lysis and resuspended in bone marrow maintenance media (BMMM; 20% L929-conditioned media in cDMEM). Cells were then plated on surface-treated 6-well plates at a 250 k cells/well seeding density. On day 3, fresh BMMM was added. On day 5, media was aspirated and fresh BMMM was added. […] Cells were stained and analyzed for macrophages via flow cytometry as described above with the addition of analyzing macrophage phenotypes. From the CD11b^+CD68^+ macrophage population, macrophage phenotypes were determined based on CD206 and CD11c expression. […] All cells were measured using a FACS Aria II (BD) and analyzed using FlowJo (BD Biosciences). […]"}, "[2]": {"system": "DSS-induced chronic colitis", "assay": "DSS mouse model, Experiment 1: chronic colitis", "type": "in vivo, C57BL/6 female mice", "description": "Experiment 1—Chronic Colitis: 14-week-old C57BL/6 female mice were given 3 cycles of DSS. Each cycle consisted of 7 days on DSS (cycle 1: 1%; cycle 2: 1.5%, cycle 3: 1%), immediately followed by 7 days of regular drinking water. Either vehicle or panaxynol was administered 3×/week beginning on the day prior to the first DSS cycle (day −1) until study completion (FIG. 9A). To ensure the induction of colitis and to quantify disease states, colitis symptoms were monitored 3×/week using a pre-established disease activity index (DAI), which quantifies bodyweight loss, stool consistency, and rectal bleeding to produce an overall symptom score; a higher score correlates with worsened disease. Mice were euthanized on day 42—one day after the last dose of panaxynol was given. Data presented in FIG. 9A-9F was obtained from 2 cohorts of Experiment 1—Chronic Colitis.\nPanaxynol (PA; C17H24O) was purchased from Biopurify Pytochemicals Ltd in sealed 5 mg/mL vials in pure 95% ethanol and stored at −20° C. PA was prepared fresh on the day of treatment by diluting in H2O to 1 mg/mL for administration (p.o.) at a dosage of 2.5 mg/kg. This dosage was chosen following a pilot dose-response study to determine PA's efficacy. PA or VEH was administered 3×/week via oral gavage using flexible plastic tubing gavage needles (Instech, Cat #FTP-20) for a total of 12 weeks.\nAll mice underwent the same symptom monitoring and scoring. Body weights and symptom scores were determined […] to quantify disease state, with a higher score indicative of a worsened disease state. Symptom scores were calculated by scoring percent body weight loss, stool consistency, and rectal bleeding as previously described. Briefly, fresh colonic evacuates were smeared onto “Hemoccult” tape (Beckman Coulter) to assess severity of diarrhea and were tested with developer (Beckman Coulter) to assess rectal bleeding. Stool consistency was scored as follows: solid cylinder (0), soft cylinder and easily spreadable (2), and noncylindrical or runny (4). Bleeding was scored as follows: no positive detection of blood (0), detection of blood but not grossly visible (2), and gross visibility of blood (4). Body weight was calculated as percent bodyweight loss: 0%-5% (0), 6%-10% (1), 11%-15% (2), 15%-20% (3), 20%-25% (4), and >25% (5). Scores of all three categories were summed to obtain an overall symptom score for each mouse.\nPrior to euthanasia, colonoscopies were performed (n=3/group) to visualize the colonic tissue and quantify the severity of disease (colitis and colorectal tumors) using an established protocol. Briefly, mice were anesthetized with isoflurane to perform a detailed endoscopic examination in which the endoscope was gently inserted into the rectum and through the anus. Air was applied to slowly set apart the intestinal walls for examination. As the scope advanced, pictures were taken frequently and the following were meticulously assessed and scored by the blinded primary investigator using the well-established scoring system to integrate evaluation of intestinal inflammation (i.e., focal lesions (edematous areas of mucosa, erosions/reddened areas, ulcers), perianal region findings (diarrhea, bloody anal discharge, or prolapse), transparency of the colonic wall (visualization of the intramural blood vessels), and presence of intestinal bleeding) and tumors. Scoring was performed as previously described with no modifications. Upon completion of colonoscopies, mice were placed on a warm pad set at 37° C. for 5 min."}}}
{"smiles": "C=CC(O)C#CC#CC/C=C\\CCCCCCC", "note": "(stereo in doubt) [PA, 3(R)-(9Z)-heptadeca-1,9-dien-4,6-diyn-3-ol]", "values": [{"measurement": "IC50", "setting": "[1]", "value": "~7", "unit": "µM"}, {"measurement": "rectal bleeding", "setting": "[2]; DAI, vs DSS+Veh", "value": "decreased"}, {"measurement": "stool consistency", "setting": "[2]; DAI, vs DSS+Veh", "value": "improved"}, {"measurement": "reduction in ulcerations (endoscopic score)", "setting": "[2]; day 42, vs DSS+Veh, p=0.001", "value": 65, "unit": "%"}, {"measurement": "reduction in total lesions (endoscopic score)", "setting": "[2]; day 42, vs DSS+Veh, p=0.005", "value": 70, "unit": "%"}, {"measurement": "reduction in inflammation (endoscopic score)", "setting": "[2]; day 42, vs DSS+Veh, p=0.016", "value": 54, "unit": "%"}, {"measurement": "reduction in total endoscopic scores", "setting": "[2]; day 42, vs DSS+Veh, p=0.016", "value": 52, "unit": "%"}, {"measurement": "reduction in erosions (endoscopic score)", "setting": "[2]; day 42, vs DSS+Veh, p=0.017", "value": 74, "unit": "%"}, {"measurement": "body weight", "setting": "[2]; end of study, not significant vs DSS+Veh 20.7±0.4, p=0.862", "value": "20.3 ± 0.7", "unit": "g"}, {"measurement": "DAI scores", "setting": "[2]; throughout treatment, vs DSS+Veh", "value": "significantly (p≤0.05) improved"}]}
